From PubChem BioAssay (NCI)
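Test compounds were applied to cells in 96-well plates for 48 hours at 5 doses. Definition used: TGI = concentration required for complete inhibition of growth.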

Assays:
Assay in all cases: growth of human tumour cells (NCI), 48 h
[1] = test system: RPMI-8226 leukemia
[2] = test system: HL-60(TB) leukemia
[3] = test system: RXF 393 renal
[4] = test system: BT-549 breast
[5] = test system: NCI-H226 lung
[6] = test system: NCI/ADR-RES ovarian
[7] = test system: SW-620 colon
[8] = test system: KM12 colon
[9] = test system: UACC-257 melanoma
[10] = test system: SN12C renal
[11] = test system: CAKI-1 renal
[12] = test system: SK-MEL-28 melanoma
[13] = test system: SNB-19 CNS
[14] = test system: NCI-H460 lung
[15] = test system: M14 melanoma
[16] = test system: HS 578T breast
[17] = test system: MCF7 breast
[18] = test system: A498 renal
[19] = test system: SK-OV-3 ovarian
[20] = test system: A549 NSCLC
[21] = test system: HCC-2998 colon
[22] = test system: SF-268 CNS
[23] = test system: HCT-15 colon
[24] = test system: SR leukemia
[25] = test system: SK-MEL-2 melanoma
[26] = test system: HT29 colon
[27] = test system: IGROV1 ovarian
[28] = test system: MDA-MB-435
[29] = test system: NCI-H522 lung
[30] = test system: OVCAR-5 ovarian
[31] = test system: UACC-62 melanoma
[32] = test system: MOLT-4 leukemia
[33] = test system: CCRF-CEM leukemia
[34] = test system: SK-MEL-5 melanoma
[35] = test system: TK-10 renal
[36] = test system: MALME-3M melanoma
[37] = test system: MDA-N
[38] = test system: SF-295 CNS
[39] = test system: HOP-92 NSCLC
[40] = test system: UO-31 renal
[41] = test system: EKVX NSCLC
[42] = test system: ACHN renal
[43] = test system: COLO 205 colon
[44] = test system: K-562 leukemia
[45] = test system: OVCAR-8 ovarian
[46] = test system: NCI-H23 lung
[47] = test system: 786-0 renal
[48] = test system: OVCAR-3 ovarian
[49] = test system: HCT-116 colon
[50] = test system: DU-145 prostate
[51] = test system: MDA-MB-231 breast
[52] = test system: PC-3 prostate
[53] = test system: SNB-75 CNS
[54] = test system: U251 CNS
[55] = test system: T-47D breast
[56] = test system: OVCAR-4 ovarian
[57] = test system: SF-539 CNS
[58] = test system: LOX IMVI melanoma
[59] = test system: HOP-62 NSCLC

Measured: TGI

S=c1[nH]c(=S)c2cc(Sc3ccc4[nH]c(=S)[nH]c(=S)c4c3)ccc2[nH]1
53.3 µM: [3]
62.5 µM: [8]
48.1 µM: [45]
82.8 µM: [57]
67.7 µM: [35]
83.7 µM: [11]
36.3 µM: [31]
40 µM: [47]
62.8 µM: [2]
51.4 µM: [46]
52.5 µM: [5]
54.9 µM: [1]
57.4 µM: [39]
52.4 µM: [43]
51.2 µM: [24]
86.8 µM: [27]
73.2 µM: [4]
44 µM: [18]
78.2 µM: [13]
68 µM: [22]
60 µM: [19]
42.6 µM: [53]
80.9 µM: [33]
47.1 µM: [38]
49.7 µM: [56]
56.1 µM: [16]
82.4 µM: [40]
not listed: [58] | [59]
> 100 µM: all other assays above

CCC(CCCC[C@@H]1CC[C@H]2CC(=O)C[C@@H]12)OC (stereo not given in full)
not listed: [40]
> 100 µM: all other assays above
